Measured values published in patent US20180282275A1, “New alkynyl-substituted 3-phenylpyrrolidine-2,4-diones and use thereof as herbicides” (Bayer CropScience Aktiengesellschaft, priority 2015, published 2018).

How the values were obtained:
Type in all cases: in vivo
Lolium rigidium [1] = assay: Pre-emergence herbicidal effect, greenhouse pot test; settings: 320 g a.i./ha, visual score after 3 weeks, 100% = plants have died, 0% = like control
From the text: (§1) Seeds of monocotyledonous and dicotyledonous weed plants and crop plants are laid out in wood-fibre pots in sandy loam and covered with soil. The compounds according to the invention formulated in the form of wettable powders (WP) or as emulsion concentrates (EC) are then applied as aqueous suspension or emulsion at a water application rate of 600 to 800 l/ha (converted) with the addition of 0.2% wetting agent to the surface of the covering soil. After the treatment, the pots are placed in a greenhouse and kept under good growth conditions for the trial plants. The damage to the test plants is scored visually after a test period of 3 weeks by comparison with untreated controls (herbicidal activity in percent (%): 100% activity=the plants have died, 0% activity=like control plants). [table]

Setaria viridis [2] = assay: as above; settings: 504 h, 320 g a.i./ha, visual score after 3 weeks, 100% = plants have died, 0% = like control, read-out: Herbicidal effect against [%] SETVI
From the text: as §1

Alopecurus myosuroides [3] = assay: as above; settings: 504 h, 320 g a.i./ha, visual score after 3 weeks, 100% = plants have died, 0% = like control, read-out: Herbicidal effect against [%] ALOMY
From the text: as §1

Echinochloa crus-galli [4] = assay: as above; settings: 504 h, 320 g a.i./ha, visual score after 3 weeks, 100% = plants have died, 0% = like control, read-out: Herbicidal effect against [%] ECHCG
From the text: as §1

Cyperus esculentus = assay: as above; settings: 320 g a.i./ha, visual score after 3 weeks, 100% = plants have died, 0% = like control
From the text: as §1

Hordeum murinum [5] = assay: as above; settings: 320 g a.i./ha, visual score after 3 weeks, 100% = plants have died, 0% = like control
From the text: as §1

Avena fatua [6] = assay: as above; settings: 504 h, 320 g a.i./ha, visual score after 3 weeks, 100% = plants have died, 0% = like control, read-out: Herbicidal effect against [%] AVEFA
From the text: as §1

Lolium rigidium [7] = assay: Post-emergence herbicidal effect, greenhouse pot test; settings: 80 g a.i./ha, one-leaf stage, visual score after about 3 weeks, 100% = plants have died
Method: (§2) [table] Seeds of monocotyledonous and dicotyledonous weed and crop plants are laid out in sandy loam in wood-fibre pots, covered with soil and cultivated in a greenhouse under good growth conditions. 2 to 3 weeks after sowing, the test plants are treated at the one-leaf stage. The compounds according to the invention, formulated in the form of wettable powders (WP) or as emulsion concentrates (EC), are then sprayed as aqueous suspension or emulsion at a water application rate of 600 to 800 l/ha (converted) with the addition of 0.2% of wetting agent onto the green parts of the plants. After the test plants have been left to stand in the greenhouse under optimal growth conditions for about 3 weeks, the action of the preparations is assessed visually in comparison to untreated controls (herbicidal action in percent (%): 100% activity=the plants have died, 0% activity=like control plants).

Setaria viridis [8] = assay: as above; settings: 504 h, 80 g a.i./ha, one-leaf stage, visual score after about 3 weeks, 100% = plants have died, read-out: Herbicidal effect against [%] SETVI
Method: as §2

Alopecurus myosuroides [9] = assay: as above; settings: 504 h, 80 g a.i./ha, one-leaf stage, visual score after about 3 weeks, 100% = plants have died, read-out: Herbicidal effect against [%] ALOMY
Method: as §2

Echinochloa crus-galli [10] = assay: as above; settings: 504 h, 80 g a.i./ha, one-leaf stage, visual score after about 3 weeks, 100% = plants have died, read-out: Herbicidal effect against [%] ECHCG
Method: as §2

Stellaria media = assay: as above; settings: 80 g a.i./ha, one-leaf stage, visual score after about 3 weeks, 100% = plants have died
Method: as §2

Hordeum murinum [11] = assay: as above; settings: 80 g a.i./ha, one-leaf stage, visual score after about 3 weeks, 100% = plants have died
Method: as §2

Avena fatua [12] = assay: as above; settings: 80 g a.i./ha, one-leaf stage, visual score after about 3 weeks, 100% = plants have died
Method: as §2

Lolium multiflorum = assay: Pre-emergence herbicidal effect, greenhouse pot test; settings: 320 g a.i./ha, visual score after 3 weeks, 100% = plants have died, 0% = like control
From the text: as §1

Structure (SMILES)	Herbicidal effect against [%] LOLRI (Lolium rigidium [1]) [%]	pest or weed control at 320 g/ha (Setaria viridis [2]) [%]	pest or weed control at 320 g/ha (Alopecurus myosuroides [3]) [%]	pest or weed control at 320 g/ha (Echinochloa crus-galli [4]) [%]	Herbicidal effect against [%] CYPES (Cyperus esculentus) [%]	Herbicidal effect against [%] HORMU (Hordeum murinum [5]) [%]	pest or weed control at 320 g/ha (Avena fatua [6]) [%]	Herbicidal effect against [%] LOLRI (Lolium rigidium [7]) [%]	pest or weed control at 80 g/ha (Setaria viridis [8]) [%]	pest or weed control at 80 g/ha (Alopecurus myosuroides [9]) [%]	pest or weed control at 80 g/ha (Echinochloa crus-galli [10]) [%]	Herbicidal effect against [%] STEME (Stellaria media) [%]	Herbicidal effect against [%] HORMU (Hordeum murinum [11]) [%]	Herbicidal effect against [%] AVEFA (Avena fatua [12]) [%]	Herbicidal effect against [%] LOLMU (Lolium multiflorum) [%]
CC#Cc1cc(C)c(C2=C(OC(=O)OCC)C3(CCC(OCC)CC3)NC2=O)c(C)c1 (single isomer, unassigned) [Example P5]	100	80 to 100	80 to 100	80 to 100	100	100	80 to 100	100	80 to 100	80 to 100	80 to 100	100	100	100	
CC#Cc1cc(C)c(C2=C(OC(=O)OCC)C3(CCC(OCC)CC3)NC2=O)c(C)c1 (single isomer, unassigned) [Example P6]	100				90	90		100				20	80	90	
CC#Cc1cc(C)c(C2=C(O)C3(CCC(OCC)CC3)NC2=O)c(CC)c1 (stereo not shown) [Example D4]	100	80 to 100	80 to 100	80 to 100	70	100	80 to 100	100	80 to 100	80 to 100	80 to 100	10	100	100	
CC#Cc1cc(C)c(C2=C(O)C3(CCC(OCC)CC3)NC2=O)c(C)c1 (stereo not shown) [Example D6]	100	80 to 100	80 to 100	80 to 100	100	100		100	80 to 100	80 to 100	80 to 100	90	100	100	
CC#Cc1cc(C)c(C2=C(O)C3(CCC(OCC)CC3)NC2=O)c(C)c1 (stereo not shown) [Example D7]	100					100		100				20	60	100	
CCc1cc(C#CC2CC2)cc(C)c1C1=C(O)C2(CCC(OC)CC2)NC1=O (stereo not shown) [Example D10]		80 to 100	80 to 100	80 to 100			80 to 100		90 to 100	90 to 100	90 to 100				100
COC1CCC2(CC1)NC(=O)C(c1c(C)cc(C#CC3CC3)cc1C)=C2O (stereo not drawn) [Example D11, cis-3-[4-(Cyclopropylethynyl)-2,6-dimethylphenyl]-4-hydroxy-8-methoxy-1-azaspiro[4.5]dec-3-en-2-one]		80 to 100	80 to 100	80 to 100			80 to 100		90 to 100	90 to 100	90 to 100				100
CC#Cc1cc(C)c(C2=C(OC(=O)OC)C3(CCC(OCC)CC3)NC2=O)c(C)c1 (stereo not shown) [Example P7]	100	80 to 100	80 to 100	80 to 100	100	100	80 to 100	100	80 to 100	80 to 100	80 to 100	100	100	100	
CC#Cc1cc(C)c(C2=C(OC(=O)C(C)C)C3(CCC(OCC)CC3)NC2=O)c(C)c1 (stereo not shown) [Example P8]	100	80 to 100	80 to 100	80 to 100	100	100	80 to 100	100	80 to 100	80 to 100	80 to 100	60	100	100	
CC#Cc1cc(C)c(C2=C(OC(=O)OCC)C3(CCC(OCC)CC3)NC2=O)c(CC)c1 (stereo not shown) [Example P9]	100				60	100		100				40	100	100	
CC#Cc1cc(C)c(C2=C(OC(=O)OCC)C3(CCC(OCC)CC3)NC2=O)c(CC)c1 (stereo not shown) [Example P10]	100	80 to 100	80 to 100	80 to 100		90	80 to 100	100	80 to 100	80 to 100	80 to 100	10	100	90	
CCOC(=O)OC1=C(c2c(C)cc(C#CC3CC3)cc2CC)C(=O)NC12CCC(OC)CC2 (stereo not shown) [Example P14]		80 to 100	80 to 100	80 to 100			80 to 100		90 to 100	90 to 100	90 to 100				100
CCc1cc(C#CC2CC2)cc(C)c1C1=C(OC(=O)C(C)C)C2(CCC(OC)CC2)NC1=O (stereo not shown) [Example P15]		80 to 100	80 to 100	80 to 100			80 to 100		90 to 100	90 to 100	90 to 100				100
CC#Cc1cc(C)c(C2=C(O)C3(CCC(OCC)CC3)NC2=O)c(C)c1 (stereo not shown) [Example S3]	100				80	100		100				100	100	100	
CC#Cc1cc(C)c(C2=C(O)C3(CCC(OCC)CC3)NC2=O)c(CC)c1 (stereo not shown) [Example S4]	100				60	100		100				10	100	100	
